One may read the IC50 as the point on the concentration scale where inhibition reaches its midpoint. Broadly, the inhibition is the drop in the measured response relative to a control, in per cent. Low values mean a response near the control, high ones a response far below the control. The residual activity is the signal under treatment as a percentage of the control signal.

Activity calls are given as the source filed them. No cut-off for these calls is given here.

This note sets out measurements from ChEMBL document CHEMBL1149012, “Effects of phenolic constituents from the mulberry tree on arachidonate metabolism in rat platelets” (J Nat Prod, 1986).

The test system of experiment [1] is Platelet. The experiment is described as follows: Inhibition of 12-hydroxy-5,8,10-heptadecatrienoic acid formation in Wistar King platelets. It counts as functional, cell-based. The conditions noted are these: Rattus norvegicus.
Experiment [2] has as its system Platelet. In words: Inhibition of thromboxane B2 formation in Wistar King platelets. Format: functional, cell-based. To be noted: Rattus norvegicus.
For experiment [3], the system named is Platelet. In words: Inhibition of 12-hydroxy-5,8,10,14-eicosatetraenoic acid formation in Wistar King platelets. It counts as functional, cell-based. To be noted: Rattus norvegicus.
Experiment [4] concerns Platelet. In words: Stimulation of 12-hydroxy-5,8,10,14-eicosatetraenoic acid formation in Wistar King platelets. Format: functional, cell-based. To be noted: Rattus norvegicus.
Experiment [5] concerns Platelet. The experiment is described as follows: Stimulation of 12-hydroxy-5,8,10,14-eicosatetraenoic acid formation in Wistar King platelets at 1 mM. The conditions noted are these: Rattus norvegicus. Format: functional, cell-based.
Experiment [6] concerns Platelet. The experiment is described as follows: Stimulation of 12-hydroxy-5,8,10,14-eicosatetraenoic acid formation in Wistar King platelets at 10 uM. Format: functional, cell-based. The conditions noted are these: Rattus norvegicus.
Experiment [7] relates to Platelet. In words: Inhibition of 12-hydroxy-5,8,10-heptadecatrienoic acid formation in Wistar King platelets at 1 mM. Format: functional. The conditions noted are these: Rattus norvegicus.
Experiment [8] concerns Platelet. In words: Inhibition of 12-hydroxy-5,8,10,14-eicosatetraenoic acid formation in Wistar King platelets at 1 mM. To be noted: Rattus norvegicus. Format: functional.
Experiment [9] has as its system Platelet. The experiment is described as follows: Inhibition of thromboxane B2 formation in Wistar King platelets at 1 mM. It counts as functional. The conditions noted are these: Rattus norvegicus.
The test system of experiment [10] is Platelet. In words: Inhibition of 12-hydroxy-5,8,10,14-eicosatetraenoic acid formation in Wistar King platelets at 0.1 mM. The conditions noted are these: Rattus norvegicus, values are per cent of control. It counts as functional.
Experiment [11] concerns Platelet. In words: Stimulation of 12-hydroxy-5,8,10,14-eicosatetraenoic acid formation in Wistar King platelets at 0.1 mM. Format: functional, cell-based. To be noted: Rattus norvegicus.

On to `OC[C@H]1O[C@@H](Oc2cc(O)cc(/C=C/c3ccc(O[C@@H]4O[C@H](CO)[C@@H](O)[C@H](O)[C@H]4O)cc3O)c2)[C@H](O)[C@@H](O)[C@@H]1O`, for which the outcome in the experiment on Platelet [1], in the experiment with Platelet [2] and in the experiment with Platelet [3] was inactive.

Take `CC(C)=CCc1c(-c2ccc(O)cc2O)oc2c([C@H]3C=C(C)C[C@@H](c4ccc(O)cc4O)[C@@H]3C(=O)c3ccc(O)cc3O)c(O)cc(O)c2c1=O` [KUMANON G]: the IC50 in the experiment with Platelet [1] was 89.3 µM; with Platelet [2], 132 µM. In addition, the result in the experiment with Platelet [4], in the experiment with Platelet [5] and in the experiment with Platelet [6] was Active.

As to `CC(C)=CCc1c(O)ccc(C(=O)[C@@H]2[C@@H](c3c(O)cc(O)c4c(=O)c(CC=C(C)C)c(-c5ccc(O)cc5O)oc34)C=C(C)C[C@H]2c2ccc(O)cc2O)c1O` [KUMANON H], the IC50 with Platelet [1] was 24 µM; in the experiment on Platelet [2], 75.7 µM. Further, the outcome in the experiment with Platelet [4], with Platelet [5] and in the experiment on Platelet [6] was Active.

Regarding `CC(C)=CCc1c(-c2ccc(O)cc2O)oc2c([C@H]3Oc4cc(O)c5c(=O)c(CC=C(C)C)c(-c6ccc(O)cc6O)oc5c4[C@@H]4C=C(C)CC(C)(C)[C@H]34)c(O)cc(O)c2c1=O` [KUMANON M], the inhibition at 1000 µM was 81.5% with Platelet [7], 68% in the experiment with Platelet [8] and 87.3% in the experiment on Platelet [9].

In the case of `CC1=C[C@H]2c3c(O)cc(-c4cc5ccc(O)cc5o4)cc3O[C@@]3(c4ccc(O)cc4O)Oc4cc(O)ccc4[C@H](C1)[C@@H]23` [MULBERROFURAN G], the IC50 in the experiment on Platelet [1] is 10.7 µM; in the experiment with Platelet [2], 34.7 µM; in the experiment with Platelet [3], 89 µM.

Consider `CC1=C[C@H](c2c(O)cc(-c3cc4ccc(O)cc4o3)cc2O)[C@@H](C(=O)c2ccc(O)cc2O)[C@H](c2ccc(O)cc2O)C1` [MULBERROFURAN J], for which the residual activity at 100 µM in the experiment with Platelet [10] was 194%. Also, the IC50 in the experiment with Platelet [1] worked out at 36.3 µM; with Platelet [2] it was 50.7 µM; in the experiment on Platelet [3], 823 µM. This compound also had an inhibition at 1000 µM in the experiment with Platelet [8] of 35.5%. Besides, the result in the experiment on Platelet [11] was Active.

In the case of `CC12C[C@@H](c3ccc(O)cc3O1)C13OC1(c1ccc(O)cc1O)Oc1cc(-c4cc5ccc(O)cc5o4)cc(O)c1C3C2=O` (stereo not given in full) [MULBERROFURAN Q], the IC50 amounted to 227 µM in the experiment with Platelet [1] and 355 µM in the experiment on Platelet [2]. The result in the experiment on Platelet [4], in the experiment with Platelet [5] and in the experiment with Platelet [6] was Active.

As for `CC(C)=CC[C@]12Oc3cc(O)c([C@H]4C=C(C)C[C@H](c5ccc(O)cc5O)[C@H]4C(=O)c4ccc(O)cc4O)c(O)c3C(=O)[C@@]1(O)Oc1cc(O)ccc12` [SANGGENON C], the IC50 with Platelet [1] was determined as 112 µM; in the experiment with Platelet [2] it was 180 µM. The result in the experiment on Platelet [4], in the experiment with Platelet [5] and in the experiment with Platelet [6] was Active.

On to `CC(C)=CCC12Oc3cc(O)ccc3C1(O)Oc1cc(O)c([C@H]3C=C(C)C[C@@H](c4ccc(O)cc4O)[C@@H]3C(=O)c3ccc(O)cc3O)c(O)c1C2=O` (stereo not given in full) [SANGGENON D], for which, in the experiment on Platelet [10], the residual activity at 100 µM was 256%. Besides, the values for the IC50 in the experiment on Platelet [1] and in the experiment on Platelet [2] were 43.3 µM and 48.3 µM, respectively. In the experiment on Platelet [8], this compound registered an inhibition at 1000 µM of 51%. In addition, the result in the experiment with Platelet [11] was Active.
